We go through 26 molecules from patent US8952039B2, “Pyridone derivatives and their use in the treatment, ameloriation or prevention of a viral disease” (priority 2013, dated 2015).

SMILES strings stand for the structures. pIC50: −log10 of the molar value.

One assay deals with T1, influenza A virus (IAV) PA-Nter fragment (amino acids 1-209) (Influenza A virus, UniProt P31343).
T1 construct: PA-Nter fragment (amino acids 1-209); made in house
As to the kind of experiment: FRET endonuclease activity assay. To be noted: 10 μM compound; % reduction of v0 compared to untreated. The format is biochemical.
The inhibition is the relative decrease from the control value, in per cent. Low readings indicate a response near the control, high ones a response far below the control. `CC(C)NC(=O)c1c(O)c(=O)cc(CNS(=O)(=O)c2ccccc2)n1C` displayed an inhibition at 10 µM of 13%.
Same read-out and setting: with `CC(C)NC(=O)c1c(O)c(=O)cc(CNS(=O)(=O)c2cccc(Cl)c2)n1C` the figure was 13%.
With `CC(C)NC(=O)c1c(O)c(=O)cc(CNS(=O)(=O)c2ccc(Cl)cc2)n1C`, the inhibition at 10 µM turned out to be 11%.
`Cc1cccc(S(=O)(=O)NCc2cc(=O)c(O)c(C(=O)NC(C)C)n2C)c1`: the inhibition at 10 µM came to 36%.
Same read-out and setting: with `Cc1ccc(S(=O)(=O)NCc2cc(=O)c(O)c(C(=O)NC(C)C)n2C)cc1` the figure was 8%; with `CC(C)NC(=O)c1c(O)c(=O)ccn1C(C)Cc1ccccc1` (centres unmarked), 7%.
Take `CNC(=O)c1c(O)c(=O)cc(Cc2ccccc2-c2ccccc2)n1C`: the inhibition at 10 µM came out at 10%.
On the same count and under the same terms, with `CC(C)NC(=O)c1c(O)c(=O)cc(Cc2ccccc2-c2ccccc2)n1C` the figure was 13%; with `Cn1c(Cc2ccccc2-c2ccccc2)cc(=O)c(O)c1C(N)=O`, 17%; with `CNC(=O)c1c(O)c(=O)cc(CNS(=O)(=O)c2ccccc2)n1C`, 13%.
On the same count and under the same terms, then `CNC(=O)c1c(O)c(=O)cc(CNS(=O)(=O)c2ccc(C)cc2)n1C`, with 10%.
The molecule `CNC(=O)c1c(O)c(=O)cc(CNS(=O)(=O)c2cccc(C)c2)n1C` had an inhibition at 10 µM of 33%.
Take `CNC(=O)c1c(O)c(=O)cc(CNS(=O)(=O)c2ccc(Cl)cc2)n1C`: the inhibition at 10 µM worked out at 7%.
The same measure, in the same setting: with `CNC(=O)c1c(O)c(=O)cc(CNS(=O)(=O)c2cccc(Cl)c2)n1C` the figure was 23%.

The same assay, now with this note: calculated from initial reaction velocities (v0); 0.5 μM PA-Nter, 1.6 μM RNA substrate.
By pIC50 is commonly meant the IC50 on a negative log10 scale, so that one unit is a factor of ten. For the molecule `Cn1c(CNS(=O)(=O)c2ccccc2)cc(=O)c(O)c1C(=O)O`, the pIC50 is 6.25.
Regarding `Cn1c(CNS(=O)(=O)c2ccc(Cl)cc2)cc(=O)c(O)c1C(=O)O`, the pIC50 was 5.94.
Still for that read-out and setting: then `Cn1c(CNS(=O)(=O)c2cccc(Cl)c2)cc(=O)c(O)c1C(=O)O`, with 6.82; and `Cn1c(CNS(=O)(=O)c2ccccc2Cl)cc(=O)c(O)c1C(=O)O`, with 6.96; and `Cc1ccc(S(=O)(=O)NCc2cc(=O)c(O)c(C(=O)O)n2C)cc1`, with 6.01.
`Cc1ccccc1S(=O)(=O)NCc1cc(=O)c(O)c(C(=O)O)n1C`: the pIC50 is 6.55.
On to `Cc1cccc(S(=O)(=O)NCc2cc(=O)c(O)c(C(=O)O)n2C)c1`, for which the negative logarithm of the IC50 (pIC50) was 6.28.
`CC(C)NC(=O)c1c(O)c(=O)cc(CNS(=O)(=O)c2ccccc2Cl)n1C`: the pIC50 was 5.20.
Same read-out and setting: then `Cc1ccccc1S(=O)(=O)NCc1cc(=O)c(O)c(C(=O)NC(C)C)n1C`, with 5.34; and `Cn1c(Cc2ccccc2-c2ccccc2)cc(=O)c(O)c1C(=O)O`, with 6.40.
The same measure, in the same setting: then `CNC(=O)c1c(O)c(=O)cc(CNS(=O)(=O)c2ccccc2C)n1C`, with 4.91.
On the same count and under the same terms, then `CNC(=O)c1c(O)c(=O)cc(CNS(=O)(=O)c2ccccc2Cl)n1C`, with 5.05.
